Test results reported in PMC4278187 (The Journal of General Physiology, 2015).

What was measured:
[1] = biological target: T1, ELIC (Erwinia chrysanthemi ligand-gated ion channel) (Dickeya chrysanthemi, UniProt P0C7B7); experiment: whole-cell patch clamp concentration-response in HEK293 cells; assay type: cell-based
T1 sequence (P0C7B7 1-321): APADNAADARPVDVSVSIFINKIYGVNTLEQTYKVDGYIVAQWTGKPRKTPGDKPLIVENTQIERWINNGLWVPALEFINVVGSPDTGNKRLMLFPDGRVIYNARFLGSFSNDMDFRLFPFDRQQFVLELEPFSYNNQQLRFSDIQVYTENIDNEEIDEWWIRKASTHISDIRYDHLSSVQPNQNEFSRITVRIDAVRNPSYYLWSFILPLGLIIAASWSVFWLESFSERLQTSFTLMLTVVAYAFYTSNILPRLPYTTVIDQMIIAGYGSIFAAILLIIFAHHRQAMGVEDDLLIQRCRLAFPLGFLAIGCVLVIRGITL

[2] = biological target: T1, ELIC (Erwinia chrysanthemi ligand-gated ion channel); experiment: macroscopic patch-clamp currents; assay type: cell-based

| EC50 [1] | SMILES | macroscopic patch-clamp currents (data not shown) [2] |
| --- | --- | --- |
| 500 ± 100 µM | CCCN [propylamine] | – |
| – | NCCS [cysteamine] | in our macroscopic records, the rebound current (see below) was more prominent when responses were elicited by cysteamine |
